The source of these data is publication PMC11016064, “One substrate many enzymes virtual screening uncovers missing genes of carnitine biosynthesis in human and mouse” (Nature Communications, 2024).

For series [1], the target named is T1, SHMT1 (Homo sapiens, UniProt P34896).
T1 sequence (P34896 2-483): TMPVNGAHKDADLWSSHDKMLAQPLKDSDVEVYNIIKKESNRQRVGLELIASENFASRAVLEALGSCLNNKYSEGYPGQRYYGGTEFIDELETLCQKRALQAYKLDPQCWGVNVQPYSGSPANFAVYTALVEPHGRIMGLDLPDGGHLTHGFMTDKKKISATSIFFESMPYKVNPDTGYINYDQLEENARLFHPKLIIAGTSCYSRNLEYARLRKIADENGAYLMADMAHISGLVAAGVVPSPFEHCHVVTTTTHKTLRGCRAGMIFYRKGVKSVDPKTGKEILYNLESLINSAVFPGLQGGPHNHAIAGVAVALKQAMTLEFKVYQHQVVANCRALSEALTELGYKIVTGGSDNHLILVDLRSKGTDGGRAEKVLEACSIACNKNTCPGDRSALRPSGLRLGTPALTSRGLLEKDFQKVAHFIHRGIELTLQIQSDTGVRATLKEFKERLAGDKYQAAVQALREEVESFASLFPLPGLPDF

For series [2], the target named is T2, threonine aldolase (Tha1) (Mus musculus, UniProt Q6XPS7).
T2 sequence (Q6XPS7 41-400): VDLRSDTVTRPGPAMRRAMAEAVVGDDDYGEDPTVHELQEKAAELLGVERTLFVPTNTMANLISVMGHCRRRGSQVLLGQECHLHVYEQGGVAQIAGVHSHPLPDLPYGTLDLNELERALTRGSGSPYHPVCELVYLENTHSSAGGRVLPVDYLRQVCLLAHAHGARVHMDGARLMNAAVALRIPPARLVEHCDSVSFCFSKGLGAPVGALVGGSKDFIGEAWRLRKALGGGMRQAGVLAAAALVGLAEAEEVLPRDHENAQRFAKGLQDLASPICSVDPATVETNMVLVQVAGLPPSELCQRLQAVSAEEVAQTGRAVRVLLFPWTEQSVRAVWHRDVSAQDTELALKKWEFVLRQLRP

For series [3], the target named is T3, SHMT2 (Homo sapiens, UniProt P34897).
T3 sequence (P34897 30-504): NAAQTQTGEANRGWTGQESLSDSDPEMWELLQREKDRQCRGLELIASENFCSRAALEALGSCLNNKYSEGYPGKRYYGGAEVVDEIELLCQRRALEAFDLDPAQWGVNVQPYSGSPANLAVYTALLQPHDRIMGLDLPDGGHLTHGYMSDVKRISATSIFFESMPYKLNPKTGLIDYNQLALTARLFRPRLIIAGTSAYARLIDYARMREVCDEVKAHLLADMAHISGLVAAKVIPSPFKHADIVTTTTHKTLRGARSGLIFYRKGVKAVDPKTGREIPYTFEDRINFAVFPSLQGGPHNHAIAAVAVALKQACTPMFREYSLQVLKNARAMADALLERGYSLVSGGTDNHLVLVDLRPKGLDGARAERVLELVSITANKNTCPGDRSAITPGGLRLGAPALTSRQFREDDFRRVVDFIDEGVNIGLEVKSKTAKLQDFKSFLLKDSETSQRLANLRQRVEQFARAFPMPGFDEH

In series [4] the target is T1, SHMT1. More on the design: Threonine cleavage coupled to alcohol dehydrogenase, NADH depletion at 340 nm, Michaelis-Menten fit. Conditions: substrate. As to the method:
(§1) The HTMLA activity was measured by coupling the aldol cleavage of HTML with the oxidation of TMABA by NAD^+ catalyzed by TMABADH. The rate of the reaction was calculated from the rate of appearance in absorbance at 340 nm, due to the formation of NADH, using a value of ε340 = 6220 cm^−1·M^−1. The reaction was carried out using 1 µM SHMT1 or 4 µM SHMT2 in 50 mM potassium phosphate, pH 7.5, containing 1 mM EDTA, 5 mM 2-mercaptoethanol, 0.5 mM NAD^+ and 8 µM TMABADH, at 37 °C. For Tha1 (1 µM) and eTA (0.1 µM) we kept the same conditions but a different temperature (30 °C) due to their low stability at 37 °C. The rate of L-allo-threonine and threonine cleavage was measured by coupling the reaction with reduction of the product acetaldehyde by NADH and alcohol dehydrogenase. With L-allo-threonine as substrate were reduced the amount of SHMT enzymes, 0.15 µM for SHMT1 and 1 µM for SHMT2.The rate of the reaction was calculated from the rate of disappearance in absorbance at 340 nm, due to NADH depletion.

The target of series [5] is T3, SHMT2. Details: Threonine cleavage coupled to alcohol dehydrogenase, NADH depletion at 340 nm, Michaelis-Menten fit. Particulars: substrate. As to the method: as §1
Series [6] concerns the target T2, threonine aldolase (Tha1). Nature of the series: X-ray crystal structure (monoclinic C2 form). Details: without the first 40 amino acids (predicted mitochondrial signal). The class given is binding.
The target of series [7] is T3, SHMT2. Nature of the series: TMABADH-coupled spectrophotometric aldolase assay (Km). The class given is biochemical.
The target in series [8] is T4, low-specificity threonine aldolase eTA (Escherichia coli, UniProt P75823).
T4 construct: gene ltaE
T4 sequence (P75823 whole entry): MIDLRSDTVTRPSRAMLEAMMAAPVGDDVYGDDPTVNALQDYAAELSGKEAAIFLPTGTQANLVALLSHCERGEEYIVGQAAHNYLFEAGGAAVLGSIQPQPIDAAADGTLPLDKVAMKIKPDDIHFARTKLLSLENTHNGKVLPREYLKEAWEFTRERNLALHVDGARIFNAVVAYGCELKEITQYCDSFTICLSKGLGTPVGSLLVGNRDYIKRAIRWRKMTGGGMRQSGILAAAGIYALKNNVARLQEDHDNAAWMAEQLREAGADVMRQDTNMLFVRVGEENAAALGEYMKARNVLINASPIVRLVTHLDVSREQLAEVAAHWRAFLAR
Put plainly: TMABADH-coupled spectrophotometric aldolase assay. The class given is biochemical.

Another series deals with T5, KYAT1 (Homo sapiens, UniProt Q16773).
T5 sequence (Q16773 1-422): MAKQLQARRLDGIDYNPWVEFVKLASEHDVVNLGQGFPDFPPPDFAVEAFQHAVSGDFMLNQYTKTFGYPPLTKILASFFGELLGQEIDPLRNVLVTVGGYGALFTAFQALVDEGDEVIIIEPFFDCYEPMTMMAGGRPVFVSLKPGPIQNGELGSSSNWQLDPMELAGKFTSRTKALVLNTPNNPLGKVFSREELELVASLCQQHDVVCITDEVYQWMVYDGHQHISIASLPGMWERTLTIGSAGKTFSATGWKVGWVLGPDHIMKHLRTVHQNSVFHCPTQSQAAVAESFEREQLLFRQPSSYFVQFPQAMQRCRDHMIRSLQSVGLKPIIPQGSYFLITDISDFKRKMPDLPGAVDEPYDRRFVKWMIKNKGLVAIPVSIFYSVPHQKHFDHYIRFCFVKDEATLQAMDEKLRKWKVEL
Put plainly: spectrophotometric kynurenine aminotransferase assay at […] nm, Lineweaver-Burk. The class given is biochemical.

Series [9] deals with T1, SHMT1. Put plainly: TMABADH-coupled spectrophotometric aldolase assay (Km); 1H NMR. The class given is biochemical.
Substrate in series [10]: C[N+](C)(C)CCC[C@H](O)[C@H](N)C(=O)[O-]
The series is described as above. The class given is biochemical, Mus musculus. Conditions: PLP.

Substrate in series [11]: C[C@@H](O)[C@H](N)C(=O)O
Put plainly: purified protein, by the assay type. More on the design: Threonine cleavage coupled to alcohol dehydrogenase, NADH depletion at 340 nm, Michaelis-Menten fit. Conditions: pH 7.5. As to the method: as §1

Substrate in series [12]: C[C@H](O)[C@H](N)C(=O)O
Put plainly: purified protein, by the assay type. Details: Threonine cleavage coupled to alcohol dehydrogenase, NADH depletion at 340 nm, Michaelis-Menten fit. Conditions: pH 7.5. The protocol:
as §1

Series [13] concerns the molecule itself. Put plainly: crystal structure; sitting drop at 18 °C, 0.2 M sodium nitrate, 0.1 M Bis-Tris propane pH 8.5, 20% w/v PEG 3350; space groups F222 (one molecule in the ASU) and C2 (two molecules in the ASU); tetramer formed by crystallographic symmetries.

Where two headings read alike, the source gives them in different places.

For `C[C@H](O)[C@H](N)C(=O)O` [L-allo-threonine], the “alcohol dehydrogenase-coupled spectrophotometric aldolase assay (kcat/Km)” value at SHMT1 [1] was ~ 10^4 s^-1 M^-1; in series [2] it was ~ 10^2 s^-1 M^-1; on SHMT2 [3] it was ~ 10^2 s^-1 M^-1. The results for the Km on SHMT1 [4] and on SHMT2 [5] were 0.226 ± 0.017 mM and 1.34 ± 0.115 mM, respectively.
In the case of `Cc1ncc(COP(=O)(O)O)c(C=O)c1O` [PLP], the “X-ray crystal structure (monoclinic C2 form)” value in series [6] was “In Tha1, the PLP cofactor, bound to Lys242, is stabilized in the active site by a network of hydrogen bonds”.
`C[N+](C)(C)CCC[C@H](O)[C@H](N)C(=O)[O-]` [HTML]: the Km (in general, the substrate concentration at which the rate is half of its maximum) at SHMT2 [7] came to 800 µM; at SHMT1 [9] it was 3.79 mM. Also, the “TMABADH-coupled spectrophotometric aldolase assay” value in series [8] was “Characterization of its catalytic efficiency for L-allo-threonine and HTML, showed high activity with both substrates”. Moreover, the Ki (usually the equilibrium dissociation constant of an inhibitor or competing ligand from its target) on KYAT1 stood at 4 mM.
Take `C[C@@H](O)[C@H](N)C(=O)O` [L-threonine]: in series [2], the “alcohol dehydrogenase-coupled spectrophotometric aldolase assay (kcat/Km)” value is reported as ~ 10^1 s^-1 M^-1. Besides, the Michaelis constant (Km) was 36.5 ± 2.48 mM on SHMT1 [4] and 41.2 ± 3.43 mM at SHMT2 [5].

B1: threonine aldolase (Tha1) (Mus musculus) (protein)
chain: T2 sequence (Q6XPS7 41-400)
notes: without the first 40 amino acids (predicted mitochondrial signal)
With B1, the Km in [10] is recorded as 0.169 mM; in series [11] it was 37.531 ± 10.873 mM; in series [12] it was 8.236 ± 0.86 mM. For the same molecule, in series [12], the kcat/Km (usually the second-order rate constant that governs catalysis at low substrate concentration) is 238 ± 26.2 M⁻¹ s⁻¹.

B2: mouse threonine aldolase (Tha1), truncated form without the first 40 amino acids (enzyme, UniProt Q6XPS7 41-400, looked up)
chain: T2 sequence (Q6XPS7 41-400)
modifications: PLP cofactor bound to Lys242 (visible only in the monoclinic structure)
notes: Threonine aldolase Tha1, Mus musculus, CDS NM_027919.4 without the first 40 amino acids (predicted mitochondrial signal); The plasmid was bought from GenScript; also called Htmla; hydroxytrimethyllysine aldolase; source: E. coli BL21 with pGRO7 (GroEL/GroES co-expressed), purified (HisTrap, Superdex 200 size exclusion); not shown: His tag (from the vector pET-28b)
For the molecule B2, the stoichiometry N (usually a count of units in the complex or per binding partner) in [13] worked out at 4.
